Reference: patent US7811352B2, “Fertilizer compositions and methods of using” (priority 2005, dated 2010)

Assays:
[1] = test system: ultra-dwarf Bermuda grass; experiment: Phytotoxicity rating, ultra-dwarf Bermuda grass greens (Example 11); assay type: in vivo; settings: scale 0-5, 5=worst
Text: In this Example, the effect of a fertilizer comprising lysine on warm season turfgrass growth was examined. The effects of lysine (HCl) and LIQUID LYSINE on a common type of golf course greens quality turfgrass (ultra-dwarf Bermuda grass) were compared with those of urea and Milorganite.
Twelve fertilizer treatments comprising three concentrations of each fertilizer composition (Milorganite (N—P—K, 6-2-0), urea (N—P—K, 46-0-0), LIQUID LYSINE (N—P—K, 10-2-1), and lysine (HCl) (N—P—K, 15-2-1)) were prepared and applied to 3 replications of ultra-dwarf Bermuda grass. The lysine (HCl) was dissolved in water prior to application. Each fertilizer treatment was applied in concentrations of 0.125 lb N/1000 ft^2/week, 0.25 lb N/1000 ft^2/week and 0.75 lb N/1000 ft^2/week. The urea, LIQUID LYSINE and lysine (HCl) were applied as foliar liquids, while Milorganite was applied as a granular fertilizer. Plot size was 1 m×1 m set up as a randomized complete block. Plots were mowed at 0.125 inches before fertilizer application. Irrigation (0.15 inch) was applied following application. Plots were rated for turfgrass quality and color (scale of 1-10 where 10=dark green turf, 1=dead/brown turf, and 6=initially acceptable turf) and phytotoxicity (scale of 0-5, where 5=worst, and 2=minimally objectionable) throughout the study period. Quality, color, and phytotoxicity were measured on 2 days before application (day −2) and day 2, day 5, day 15 and day 21 after application. All data was subject to statistical analysis and significant means were determined. Average turfgrass quality ratings for the treatments are presented in Table 12 and the quality results for application rates of 0.25 lb N/1000 ft^2/week are graphically presented in FIG. 6.

[2] = test system: Moonlight Kentucky bluegrass; experiment: Blade density rating, Kentucky bluegrass lawn (Example 17); assay type: in vivo; settings: Day 70
Text: In this Example, the effect of a fertilizer comprising lysine on cool season lawn variety turfgrass growth was examined. The effects of lysine (HCl) and LIQUID LYSINE on a common variety of law turfgrass (Moonlight Kentucky bluegrass) were compared with those of urea, Milorganite and a blended fertilizer (a blend of methylene urea and urea in an approximately 1:1 ratio).
Fifteen fertilizer treatments comprising three concentrations of each fertilizer composition (Milorganite N—P—K, 6-2-0), urea (N—P—K, 46-0-0), a blended fertilizer, LIQUID LYSINE (N—P—K, 10-2-1), and lysine (HCl) (N—P—K, 15-2-1)) were prepared and applied to 3 replications of newly established “Moonlight” variety Kentucky bluegrass lawn turfgrass. The urea, lysine (HCl), and LIQUID LYSINE were dissolved/suspended in 1.5 gal water prior to application. […], 1.0 lb N/1000 ft^2/year and 3.0 lb N/1000 ft^2/year, The urea, LIQUID LYSINE and lysine (HCl) were applied as foliar liquids, while Milorganite and the blended fertilizer were applied as granular fertilizers. Plot size was 4 ft×8 ft laid out in a replicated complete block design. Plots were mowed at 2.0 inches before fertilizer application and mowed two times per week to 2.0 inch height. Grass clippings were not removed from the plots and no supplemental cultural maintenance or pest management was applied. Irrigation (0.15 inch) was applied following application and thereafter only when necessary to insure survival of the turf. Plots were rated for turfgrass quality (scale of 1-9 where 9=dark green turf, 1=dead/brown turf, and 6=minimally acceptable turf) and phytotoxic injury (scale of 0-9 where 9=significant foliar injury and 2=minimally objectionable foliar injury) throughout the study period. Quality was measured prior to application (day 0) and day 37, day 70 and day 95 after application. Injury was measured on day 37 and day 70 after application. In addition, blade density of the grass was measured on day 70 after application (scale of 1-9, where 9=very dense turf, 1=low density turf). All data was subject to statistical analysis and significant means were determined.

[3] = Weekly Rate 0.125 lbs N/1000 ft^2, Day 2
[4] = Weekly Rate 0.125 lbs N/1000 ft^2, Day 5
[5] = Weekly Rate 0.125 lbs N/1000 ft^2, Day 15
[6] = Weekly Rate 0.125 lbs N/1000 ft^2, Day 21
[7] = Weekly Rate 0.125 lbs N/1000 ft^2, Day −2 (before application)
[8] = Weekly Rate 0.25 lbs N/1000 ft^2, Day 2
[9] = Weekly Rate 0.25 lbs N/1000 ft^2, Day 5
[10] = Weekly Rate 0.25 lbs N/1000 ft^2, Day 15
[11] = Weekly Rate 0.25 lbs N/1000 ft^2, Day 21
[12] = Weekly Rate 0.25 lbs N/1000 ft^2, Day −2 (before application)
[13] = Weekly Rate 0.75 lbs N/1000 ft^2, Day 2
[14] = Weekly Rate 0.75 lbs N/1000 ft^2, Day 5
[15] = Weekly Rate 0.75 lbs N/1000 ft^2, Day 15
[16] = Weekly Rate 0.75 lbs N/1000 ft^2, Day 21
[17] = Weekly Rate 0.75 lbs N/1000 ft^2, Day −2 (before application)
[18] = Weekly Rate 0.5 lbs N/1000 ft^2
[19] = Weekly Rate 1.0 lbs N/1000 ft^2
[20] = Weekly Rate 3.0 lbs N/1000 ft^2

Row | Compound | Phytotoxicity - Dwarf Bermuda Grass [1, 3] | Phytotoxicity - Dwarf Bermuda Grass [1, 4] | Phytotoxicity - Dwarf Bermuda Grass [1, 5] | Phytotoxicity - Dwarf Bermuda Grass [1, 6] | Phytotoxicity - Dwarf Bermuda Grass [1, 7] | Phytotoxicity - Dwarf Bermuda Grass [1, 8] | Phytotoxicity - Dwarf Bermuda Grass [1, 9] | Phytotoxicity - Dwarf Bermuda Grass [1, 10] | Phytotoxicity - Dwarf Bermuda Grass [1, 11] | Phytotoxicity - Dwarf Bermuda Grass [1, 12] | Phytotoxicity - Dwarf Bermuda Grass [1, 13] | Phytotoxicity - Dwarf Bermuda Grass [1, 14] | Phytotoxicity - Dwarf Bermuda Grass [1, 15] | Phytotoxicity - Dwarf Bermuda Grass [1, 16] | Phytotoxicity - Dwarf Bermuda Grass [1, 17] | Density Rating - Kentucky Bluegrass [2, 18] | Density Rating - Kentucky Bluegrass [2, 19] | Density Rating - Kentucky Bluegrass [2, 20]
1 | Cl.NCCCC[C@H](N)C(=O)O [Lys (HCl) 15% N, L-lysine monohydrochloride] | 0 | 0 | 0 | 0 | 0 | 0 | 0 | 0 | 0 | 0 | 0 | 0 | 0 | 0 | 0 | 5.3cde | 6.3abc | 7.0ab
2 | NC(N)=O [Urea, urea, reference compound] | 0 | 0 | 0 | 0 | 0 | 0 | 0 | 0 | 0 | 0 | 0 | 0 | 0 | 0 | 0 | 5.0de | 5.3cde | 7.0ab
